These results are taken from publication PMC9739792, “Screening and Molecular Mechanisms of Novel ACE-Inhibitory Peptides from Gracilariopsis lemaneiformis” (International Journal of Molecular Sciences, 2022).

In assay [1] the test system is spontaneously hypertensive rats (SHR). Description: Antihypertensive effect of GLP in SHR after oral administration. Type of assay: in vivo, rat. Particulars: captopril 30 mg/kg·bw. The procedure: SHRs (male, 10 weeks, 220 ± 20 g body weight) were supplied by Vital River Laboratory Animal Technology Co., Ltd. (Beijing, China). […] Three doses of GLP (1200, 1500, 1800 mg/kg of body weight, BW) was orally administered to SHRs. The blank group (saline) and Captopril (30 mg/kg·bw) group were used as negative and positive control, respectively. BP-98A blood pressure monitor (Softron Biotechnology, Beijing, China) was used to determine blood pressure by the tail-cuff method. […] Animals were treated in accordance with the guidelines of the National Institutes of Health and Use of Laboratory Animals.

In another assay the target is T1, ACE from rabbit lung (Oryctolagus cuniculus, UniProt P12822).
T1 construct: ACE from rabbit lung (EC3.4.15.1); purchased Sigma-Aldrich; host or cells: rabbit lung tissue
T1 sequence (P12822 34-1310): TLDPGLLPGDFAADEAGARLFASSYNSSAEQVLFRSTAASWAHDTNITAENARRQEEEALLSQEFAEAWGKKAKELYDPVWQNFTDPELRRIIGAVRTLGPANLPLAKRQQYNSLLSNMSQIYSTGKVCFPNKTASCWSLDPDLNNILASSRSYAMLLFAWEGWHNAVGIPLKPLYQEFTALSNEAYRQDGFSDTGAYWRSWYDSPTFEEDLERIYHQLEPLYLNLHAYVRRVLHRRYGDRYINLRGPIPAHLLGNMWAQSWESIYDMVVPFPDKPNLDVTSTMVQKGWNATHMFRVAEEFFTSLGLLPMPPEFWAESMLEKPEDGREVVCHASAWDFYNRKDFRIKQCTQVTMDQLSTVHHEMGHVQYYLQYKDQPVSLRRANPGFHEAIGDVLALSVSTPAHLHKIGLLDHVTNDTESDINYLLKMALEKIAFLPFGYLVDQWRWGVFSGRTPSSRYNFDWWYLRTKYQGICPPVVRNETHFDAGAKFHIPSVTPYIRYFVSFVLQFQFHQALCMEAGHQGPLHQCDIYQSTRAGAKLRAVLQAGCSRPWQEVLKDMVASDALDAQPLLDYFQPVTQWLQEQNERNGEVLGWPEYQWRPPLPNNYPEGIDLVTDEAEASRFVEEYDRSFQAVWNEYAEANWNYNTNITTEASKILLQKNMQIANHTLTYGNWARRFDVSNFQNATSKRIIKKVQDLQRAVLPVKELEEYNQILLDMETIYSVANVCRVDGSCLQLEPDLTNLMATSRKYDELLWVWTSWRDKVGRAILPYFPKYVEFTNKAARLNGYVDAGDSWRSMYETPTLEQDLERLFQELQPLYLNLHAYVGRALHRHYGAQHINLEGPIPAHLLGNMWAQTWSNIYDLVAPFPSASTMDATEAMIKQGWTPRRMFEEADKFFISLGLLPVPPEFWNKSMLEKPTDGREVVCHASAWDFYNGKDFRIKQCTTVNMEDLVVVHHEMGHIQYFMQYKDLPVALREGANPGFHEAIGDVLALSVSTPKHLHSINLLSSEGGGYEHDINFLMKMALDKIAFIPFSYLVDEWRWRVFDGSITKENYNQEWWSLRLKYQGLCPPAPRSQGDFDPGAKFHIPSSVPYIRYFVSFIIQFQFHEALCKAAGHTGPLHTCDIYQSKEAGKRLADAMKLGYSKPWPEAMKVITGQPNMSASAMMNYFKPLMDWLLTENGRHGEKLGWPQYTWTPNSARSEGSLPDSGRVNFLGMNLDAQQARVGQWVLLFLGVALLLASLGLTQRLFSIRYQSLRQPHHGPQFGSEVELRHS
Description: ACE-inhibitory activity assay (HHL substrate, hippuric acid by RP-HPLC). The note with it: HHL 5 mM, pH 8.3, 37 °C, 45 min; for inhibition at 1000 µg/mL: synthetic peptides dissolved at 1 mg/mL; for IC50: synthetic peptides, mean ± SD, SD, read-out: IC50 of ACE inhibition. Type of assay: biochemical. The protocol:
The ACE-inhibitory activity was determined according to the method of Ma et al., with some modification. Briefly, 50 µL of sample in 0.1 mol/L borate buffer (pH 8.3, containing 0.3 M NaCl) was mixed with 150 µL of 5 mM hippuryl-l-histidyl-l-leucine (HHL) and incubated at 37 °C for 10 min. Then, the reaction was initiated by adding 50 µL of ACE solution (50 mU/mL) and incubating at 37 °C for 45 min. The reaction was then stopped by the addition of 250 µL of 1 M HCl. The formation of hippuric acid (HA) was measured by RP-HPLC (Waters, Milford, MA, USA) at 220 nm.
The screened and predicted potential ACE-inhibitory peptides were chemically synthesized at Genscript biotech corporation (Nanjing, China) using the Fmoc solid-phase method. […] Synthetic peptides were dissolved at 1 mg/mL for validation of their ACE-inhibitory activity.

Where no end group is shown, it is not given here.

As for `C[C@H](CS)C(=O)N1CCC[C@H]1C(=O)O` [captopril], in assay [1], the “time course of antihypertensive effect compared with GLP” value is listed as “reached its maximum effect faster than GLP”.
Consider RLVPVPY [RLVPVPY], for which, on ACE from rabbit lung, the inhibition at 1000 µg/mL was determined as 87.7% and the IC50 is 9.18 ± 0.42 µM.
With SFYYGK [SFYYGK], at ACE from rabbit lung, the inhibition at 1000 µg/mL was determined as 94.2% and the IC50 worked out at 6.45 ± 0.22 µM.
